Each compound was assayed against pa-HO (Pseudomonas aeruginosa, UniProt O69002). Settings: Table 2; paHO.
Assay type: binding

Sequence of pa-HO (O69002 1-198): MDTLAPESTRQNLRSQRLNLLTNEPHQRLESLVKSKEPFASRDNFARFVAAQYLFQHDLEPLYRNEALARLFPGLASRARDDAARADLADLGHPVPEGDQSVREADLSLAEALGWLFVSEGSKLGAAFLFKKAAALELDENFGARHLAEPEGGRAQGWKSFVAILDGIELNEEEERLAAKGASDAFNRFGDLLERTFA

Question: Which NMR sat. transfer does the source give for C(=N\Nc1nc(-c2cccnc2)cs1)/c1cccnc1 [Compound 3] here?
Answer: Its NMR sat. transfer is “Alias: CB-28 fluorescence binding: nd minimum inhibition conc: nd NMR sat. transfer: does not bind paHO”.

Question: For O=C(O)Cn1c(=O)c2cc3c(=O)n(CC(=O)O)c(=O)c3cc2c1=O [Compound 4], which NMR sat. transfer is on record?
Answer: Its NMR sat. transfer is “Alias: CB-2 fluorescence binding: nd minimum binding conc: nd NMR sat. transfer: do not bind paHO”.

Question: With O=C(O)CN1C(=O)c2ccccc2C1=O [Compound 5] as the compound, how does the NMR sat. transfer read?
Answer: The NMR sat. transfer was “Alias: CB-4 fluorescence binding: nd minimum inhibition conc: nd NMR sat. transfer: binds paHO”.

Question: How did the NMR sat. transfer turn out when Cc1ccccc1C(=O)Nc1cc(C(=O)O)cc(C(=O)O)c1 [Compound 6] was run?
Answer: Its NMR sat. transfer is “Alias: CB-17 fluorescence binding: nd minimum inhibition conc: nd NMR sat. transfer: binds paHO”.

Question: Which NMR sat. transfer does the source give for O=C(CNC(=O)c1cccnc1)N/N=C/c1ccccn1 [Compound 9] here?
Answer: The NMR sat. transfer was “Alias: CD-21 fluorescence binding: nd minimum inhibition conc: nd NMR sat. transfer: do not bind paHO”.

Question: Which NMR sat. transfer does the source give for O=C(CNc1ccc2ccccc2c1)N/N=C/c1ccccn1 [Compound 10] here?
Answer: The NMR sat. transfer was “Alias: CD-8 fluorescence binding: nd minimum inhibition conc: nd NMR sat. transfer: do not bind paHO”.

Question: How did the NMR sat. transfer turn out when O=C(N/N=C/c1ccc(O)cc1O)c1cccnc1 [Compound 11] was run?
Answer: Its NMR sat. transfer is “Alias: CD-20 fluorescence binding: nd minimum inhibition conc: nd NMR sat. transfer: do not bind paHO”.

Question: With NCCNS(=O)(=O)c1cccc(C(=O)O)c1 [Compound 18] as the compound, how does the NMR sat. transfer read?
Answer: The NMR sat. transfer was “Alias: Spec-7 fluorescence binding: nd minimum inhibition conc: nd NMR sat. transfer: do not bind paHO”.

Question: Which NMR sat. transfer does the source give for Cc1n[nH]c(Nc2ccccc2F)c1[N+](=O)[O-] [Compound 20] here?
Answer: The NMR sat. transfer was “Alias: CD-6 fluorescence binding: nd minimum inhibition conc: nd NMR sat. transfer: do not bind paHO”.

Question: For NC(=O)NC(=O)C[n+]1ccc(C(N)=O)cc1 [Compound 34], which NMR sat. transfer is on record?
Answer: Its NMR sat. transfer is “Alias: CD-3 fluorescence binding: nd minimum inhibition conc: nd NMR sat. transfer: do not bind paHO”.

Question: For Cc1ccc(NC(=O)c2cnccn2)cc1Cl [Compound 38], which NMR sat. transfer is on record?
Answer: Its NMR sat. transfer is “Alias: CB-24 fluorescence binding: nd minimum inhibition conc: nd NMR sat. transfer: does not bind paHO”.

Question: With Cc1cccc(NC(=O)c2ccc(C(=O)Nc3cccc(C)n3)cc2)n1 [Compound 39] as the compound, how does the NMR sat. transfer read?
Answer: Its NMR sat. transfer is “Alias: CB-20 fluorescence binding: nd minimum inhibition conc: nd NMR sat. transfer: tested, ambiguous”.

Question: O=C(NCc1ccco1)c1cc(C(=O)NCc2ccco2)cc([N+](=O)[O-])c1 [Compound 40] was tested. Which NMR sat. transfer did it give?
Answer: Its NMR sat. transfer is “Alias: CB-25 fluorescence binding: nd minimum inhibition conc: nd NMR sat. transfer: does not bind paHO”.

Question: For O=C(Oc1ccc(OC(=O)c2ccco2)cc1)c1ccco1 [Compound 47], which NMR sat. transfer is on record?
Answer: Its NMR sat. transfer is “Alias: CB-3 fluorescence binding: nd minimum inhibition conc: nd NMR sat. transfer: do not bind paHO”.

Question: Which NMR sat. transfer does the source give for O=C(O)CCn1ncc2ccccc21 [Compound 51] here?
Answer: Its NMR sat. transfer is “Alias: CD-5 fluorescence binding: nd minimum inhibition conc: nd NMR sat. transfer: do not bind paHO”.

Question: How did the NMR sat. transfer turn out when O=C(O)c1c[nH]c2c(ccc3ccccc32)c1=O [Compound 52] was run?
Answer: The NMR sat. transfer was “Alias: Spec-2 fluorescence binding: nd minimum inhibition conc: nd NMR sat. transfer: do not bind paHO”.

Question: Which NMR sat. transfer does the source give for N#CCc1ccc(NC2=NS(=O)(=O)c3ccccc32)cc1 [Compound 56] here?
Answer: The NMR sat. transfer was “Alias: CD-16 fluorescence binding: nd minimum inhibition conc: nd NMR sat. transfer: do not bind paHO”.

Question: For O=C(O)c1ccc2c(c1)-c1nc3ccccc3n1C2=O [Compound 57], which NMR sat. transfer is on record?
Answer: The NMR sat. transfer was “Alias: CD-4 fluorescence binding: nd minimum inhibition conc: nd NMR sat. transfer: do not bind paHO”.

Question: O=C(O)c1cc(-c2cccnc2)nc2ccccc12 [Compound 62] was tested. Which NMR sat. transfer did it give?
Answer: The NMR sat. transfer was “Alias: CB-23 fluorescence binding: nd minimum inhibition conc: nd NMR sat. transfer: does not bind paHO”.

Question: How did the NMR sat. transfer turn out when c1cncc(CNCc2cccnc2)c1 [Compound 64] was run?
Answer: Its NMR sat. transfer is “Alias: Spec-12 fluorescence binding: nd minimum inhibition conc: nd NMR sat. transfer: do not bind paHO”.

Question: Which NMR sat. transfer does the source give for Cc1nc(NCCCC(=O)O)c2ccccc2n1 [Compound 71] here?
Answer: The NMR sat. transfer was “Alias: Spec-6 fluorescence binding: nd minimum inhibition conc: nd NMR sat. transfer: do not bind paHO”.

Question: Which NMR sat. transfer does the source give for COc1ccc(C(=O)COC(=O)/C=C/c2ccccc2)cc1 [Compound 74] here?
Answer: Its NMR sat. transfer is “Alias: CB-1 fluorescence binding: nd minimum inhibition conc: nd NMR sat. transfer: do not bind paHO”.

Question: How did the NMR sat. transfer turn out when O=C(O)c1ccc2c(c1)C(=O)N(c1ccc(Cl)cc1)C2=O [Compound 77] was run?
Answer: Its NMR sat. transfer is “Alias: CB-16 fluorescence binding: nd minimum inhibition conc: nd NMR sat. transfer: binds paHO”.

Question: With Cc1ccc(CN2CCN(Cc3ccccc3)CC2)cc1 [Compound 80] as the compound, how does the NMR sat. transfer read?
Answer: The NMR sat. transfer was “Alias: CB-10 fluorescence binding: nd minimum inhibition conc: nd NMR sat. transfer: binds paHO”.

Question: With CCN1CCN(CCN)CC1 [Compound 90] as the compound, how does the NMR sat. transfer read?
Answer: The NMR sat. transfer was “Alias: CD-19 fluorescence binding: nd minimum inhibition conc: nd NMR sat. transfer: do not bind paHO”.

Question: With NC(=O)c1ccc[n+](-c2ccccc2)c1 [Compound 91] as the compound, how does the NMR sat. transfer read?
Answer: Its NMR sat. transfer is “Alias: Spec-10 fluorescence binding: nd minimum inhibition conc: nd NMR sat. transfer: do not bind paHO”.

Question: With CN(C)CCN(C)Cc1cccc2ccccc12 [Compound 98] as the compound, how does the NMR sat. transfer read?
Answer: Its NMR sat. transfer is “Alias: CB-12 fluorescence binding: nd minimum inhibition conc: nd NMR sat. transfer: binds paHO”.

Question: For COc1cc(/C=N/Cc2ccco2)ccc1O [Compound 104], which NMR sat. transfer is on record?
Answer: The NMR sat. transfer was “Alias: CD-13 fluorescence binding: nd minimum inhibition conc: nd NMR sat. transfer: do not bind paHO”.

Question: For Nc1nonc1-c1noc(-c2cccnc2O)n1 [Compound 113], which NMR sat. transfer is on record?
Answer: Its NMR sat. transfer is “Alias: CD-17 fluorescence binding: nd minimum inhibition conc: nd NMR sat. transfer: do not bind paHO”.

Question: With N#Cc1ncc(-c2ccccc2)nc1C#N [Compound 120] as the compound, how does the NMR sat. transfer read?
Answer: Its NMR sat. transfer is “Alias: Spec-15 fluorescence binding: nd minimum inhibition conc: nd NMR sat. transfer: do not bind paHO”.

Question: For C=CCNC(=O)C(=O)Nc1ccc(C(C)C)cc1 [Compound 124], which NMR sat. transfer is on record?
Answer: The NMR sat. transfer was “Alias: CB-30 fluorescence binding: nd minimum inhibition conc: nd NMR sat. transfer: tested, ambiguous”.

Question: With C=CCn1c(S)cc2sc3c(c2c1=O)CCN(C)C3 [Compound 128] as the compound, how does the NMR sat. transfer read?
Answer: The NMR sat. transfer was “Alias: Spec-4 fluorescence binding: nd minimum inhibition conc: nd NMR sat. transfer: do not bind paHO”.

Question: CC(C)c1ccc(CN2CCN(CCO)CC2)cc1 [Compound 132] was tested. Which NMR sat. transfer did it give?
Answer: The NMR sat. transfer was “Alias: CB-13 fluorescence binding: nd minimum inhibition conc: nd NMR sat. transfer: tested, ambiguous”.

Question: CCc1ccc2[nH]c3nc(N/N=C/c4ccc(O)cc4)nnc3c2c1 [Compound 139] was tested. Which NMR sat. transfer did it give?
Answer: The NMR sat. transfer was “Alias: CB-27 fluorescence binding: nd minimum inhibition conc: nd NMR sat. transfer: does not bind paHO”.

Question: Which NMR sat. transfer does the source give for Oc1ccccc1/C=N/Nc1nnn[nH]1 [Compound 140] here?
Answer: The NMR sat. transfer was “Alias: CB-11 fluorescence binding: nd minimum inhibition conc: nd NMR sat. transfer: binds paHO”.

Question: Which NMR sat. transfer does the source give for Nc1nnnn1/N=C/c1cc2c(cc1[N+](=O)[O-])OCO2 [Compound 143] here?
Answer: The NMR sat. transfer was “Alias: CB-19 fluorescence binding: nd minimum inhibition conc: nd NMR sat. transfer: binds paHO”.

Question: Which NMR sat. transfer does the source give for O=CNc1nonc1NNc1ccccc1 [Compound 144] here?
Answer: Its NMR sat. transfer is “Alias: CB-15 fluorescence binding: nd minimum inhibition conc: nd NMR sat. transfer: tested, ambiguous”.

Question: Which NMR sat. transfer does the source give for CN1CCN(CCCn2cnc3c2c(=O)n(C)c(=O)n3C)CC1 [Compound 145] here?
Answer: Its NMR sat. transfer is “Alias: CB-14 fluorescence binding: nd minimum inhibition conc: nd NMR sat. transfer: tested, ambiguous”.

Question: With O=C1OC(c2ccccc2)=N/C1=C\Nc1cccc([N+](=O)[O-])c1 [Compound 147] as the compound, how does the NMR sat. transfer read?
Answer: The NMR sat. transfer was “Alias: CB-26 fluorescence binding: nd minimum inhibition conc: nd NMR sat. transfer: does not bind paHO”.

Question: With O=C(O)c1ccc2c(c1)C(=O)N(CCO)C2=O [Compound 151] as the compound, how does the NMR sat. transfer read?
Answer: The NMR sat. transfer was “Alias: CB-8 fluorescence binding: nd minimum inhibition conc: nd NMR sat. transfer: binds paHO”.

From patent publication US20100081661A1, “HEME OXYGENASE INHIBITORS, SCREENING METHODS FOR HEME OXYGENASE INHIBITORS AND METHODS OF USE OF HEME OXYGENASE INHIBITORS FOR ANTIMICROBIAL THERAPY” (UNIVERSITY OF MARYLAND, BALTIMORE, priority 2006, published 2010)
